Data reported in ChEMBL document CHEMBL1201862, “PubChem BioAssay data set” (2004).
Activity calls are given as the source filed them.

Tests used:
BJ [1] = assay: BJ-TERT fibroblast viability loss – cell-based, RAS-independent, luminescence, dose response (AID 1933); format: functional; details: Homo sapiens
BJ [2] = assay: BJ-TERT-LT-ST fibroblast viability loss – cell-based, RAS-independent, luminescence, dose response (AID 1935); format: functional; details: Homo sapiens;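 note: BJ fibroblasts immortalized with TERT plus LT and ST oncogenes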
BJ [3] = assay: cells; format: functional, cell-based; details: Homo sapiens
[4] = DRD fibroblast viability loss – cell-based, non-viral oncogenic, luminescence, dose response (AID 1934); format: functional; details: Homo sapiens
[5] = target: Adenosylmethionine-8-amino-7-oxononanoate aminotransferase (Mycobacterium tuberculosis, UniProt P9WQ81); assay: Mycobacterium tuberculosis BioA enzyme inhibitor Measured in Biochemical System Using Plate Reader - 2163-02_Inhibitor_Dose_CherryPick_Activity.; format: functional, Mycobacterium tuberculosis UT205
[6] = target: T1, Mitochondrial peptide methionine sulfoxide reductase (Bos taurus, UniProt P54149); format: functional;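 note: absorbance read-out, biochemical high-throughput dose-response screen for MsrA inhibitors, confirmatory; recombinant bovine MsrA coupled to E. coli TrxB with NADPH and selenocystamine; potency is for inhibitors of MsrA activity on DMSO substrate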
T1 sequence (P54149 whole entry): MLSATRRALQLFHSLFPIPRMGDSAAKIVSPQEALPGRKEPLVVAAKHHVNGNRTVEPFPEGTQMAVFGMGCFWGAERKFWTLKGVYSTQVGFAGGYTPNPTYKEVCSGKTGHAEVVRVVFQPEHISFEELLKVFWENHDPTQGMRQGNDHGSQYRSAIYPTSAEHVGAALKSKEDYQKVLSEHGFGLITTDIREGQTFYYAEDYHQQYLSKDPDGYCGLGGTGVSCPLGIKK

[7] = activation of miR-122 Renilla sensor silencing – cell-based, Huh7 psiCHECK-miR122, Renilla luciferase, cherry-picked, dose response (AID 651956); format: functional;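 note: huh7 hepatoma cells stably carrying a psiCHECK-2 miR-122 sensor plasmid; renilla luciferase signal reporting endogenous miR-122 activity after 48 h compound exposure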
[8] = target: PAS domain-containing serine/threonine-protein kinase (Homo sapiens, UniProt Q96RG2); format: functional
[9] = target: MAP kinase-activated protein kinase 3 (Homo sapiens, UniProt Q16644); format: functional;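 note: value comes from a kinome-wide profiling panel in which MAPKAPK3 is one of the panel members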
[10] = target: T2, Protein kinase C zeta type (Homo sapiens, UniProt Q05513); format: functional;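 note: measured as one member of a broad kinase profiling panel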
T2 sequence (Q05513 whole entry): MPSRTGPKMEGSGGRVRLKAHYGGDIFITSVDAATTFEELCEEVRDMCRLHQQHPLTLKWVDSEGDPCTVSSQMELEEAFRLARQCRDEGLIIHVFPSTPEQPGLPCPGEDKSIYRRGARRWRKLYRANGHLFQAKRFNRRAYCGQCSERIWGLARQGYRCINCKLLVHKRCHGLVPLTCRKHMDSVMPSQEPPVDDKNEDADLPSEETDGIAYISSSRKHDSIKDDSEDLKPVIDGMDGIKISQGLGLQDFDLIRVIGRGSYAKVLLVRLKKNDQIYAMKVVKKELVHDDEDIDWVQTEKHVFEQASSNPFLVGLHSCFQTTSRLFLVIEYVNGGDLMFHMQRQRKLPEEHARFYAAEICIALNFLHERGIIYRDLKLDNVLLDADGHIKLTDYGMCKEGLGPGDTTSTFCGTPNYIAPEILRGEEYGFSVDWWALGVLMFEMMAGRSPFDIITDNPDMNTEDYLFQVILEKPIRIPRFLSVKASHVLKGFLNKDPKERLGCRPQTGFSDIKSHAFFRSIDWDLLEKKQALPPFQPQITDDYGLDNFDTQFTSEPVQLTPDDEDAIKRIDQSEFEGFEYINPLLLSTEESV

[11] = target: T3, Lymphokine-activated killer T-cell-originated protein kinase (Homo sapiens, UniProt Q96KB5); format: functional;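 note: value comes from a kinase panel screen in which TOPK was one of the panel members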
T3 sequence (Q96KB5 whole entry): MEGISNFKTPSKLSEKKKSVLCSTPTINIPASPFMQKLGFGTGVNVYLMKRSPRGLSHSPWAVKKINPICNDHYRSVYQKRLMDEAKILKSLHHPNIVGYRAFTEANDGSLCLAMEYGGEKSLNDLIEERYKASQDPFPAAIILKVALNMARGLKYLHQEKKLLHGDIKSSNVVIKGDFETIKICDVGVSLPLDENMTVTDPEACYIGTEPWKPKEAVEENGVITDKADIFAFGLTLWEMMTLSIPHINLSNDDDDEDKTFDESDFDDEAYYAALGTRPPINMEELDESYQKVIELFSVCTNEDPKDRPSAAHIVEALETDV

[12] = target: Protein kinase C gamma type (Homo sapiens, UniProt P05129); format: functional
[13] = target: T4, Dual specificity tyrosine-phosphorylation-regulated kinase 3 (Homo sapiens, UniProt O43781); format: functional;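 note: measured as one member of a broad kinase panel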
T4 sequence (O43781 whole entry): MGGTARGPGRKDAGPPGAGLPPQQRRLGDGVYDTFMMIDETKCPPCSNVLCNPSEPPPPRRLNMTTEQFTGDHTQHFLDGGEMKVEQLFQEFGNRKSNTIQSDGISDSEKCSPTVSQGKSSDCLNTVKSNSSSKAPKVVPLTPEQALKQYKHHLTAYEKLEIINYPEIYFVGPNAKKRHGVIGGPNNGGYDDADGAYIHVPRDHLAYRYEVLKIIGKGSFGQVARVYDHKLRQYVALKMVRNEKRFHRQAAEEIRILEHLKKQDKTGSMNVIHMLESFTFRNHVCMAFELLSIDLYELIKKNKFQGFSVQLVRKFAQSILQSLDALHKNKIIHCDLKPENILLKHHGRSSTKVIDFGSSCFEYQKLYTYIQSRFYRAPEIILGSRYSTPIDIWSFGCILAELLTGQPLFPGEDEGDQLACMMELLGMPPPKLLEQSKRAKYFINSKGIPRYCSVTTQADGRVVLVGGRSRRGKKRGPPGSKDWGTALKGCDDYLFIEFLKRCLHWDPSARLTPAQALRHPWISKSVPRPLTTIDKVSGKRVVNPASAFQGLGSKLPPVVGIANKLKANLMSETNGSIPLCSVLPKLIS

[14] = target: Cyclin-dependent kinase 1 (Homo sapiens, UniProt P06493); format: functional;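 note: Kinome-wide panel profiling, with the target listed as panel member CDC2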
[15] = target: T5, Testis-specific serine/threonine-protein kinase 2 (Homo sapiens, UniProt Q96PF2); format: functional;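 note: part of the Navigating the Kinome panel, target entry STK22B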
T5 sequence (Q96PF2 whole entry): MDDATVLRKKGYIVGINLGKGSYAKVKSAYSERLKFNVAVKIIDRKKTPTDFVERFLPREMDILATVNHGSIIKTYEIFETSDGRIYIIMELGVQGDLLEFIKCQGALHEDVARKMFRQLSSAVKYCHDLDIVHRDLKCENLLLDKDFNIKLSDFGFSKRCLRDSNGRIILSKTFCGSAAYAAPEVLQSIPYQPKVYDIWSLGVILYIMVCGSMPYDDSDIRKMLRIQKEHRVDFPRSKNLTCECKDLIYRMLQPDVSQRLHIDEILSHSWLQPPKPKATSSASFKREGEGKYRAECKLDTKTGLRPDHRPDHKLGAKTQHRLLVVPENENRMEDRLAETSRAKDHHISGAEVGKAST

[16] = target: T6, Sentrin-specific protease 1 (Homo sapiens, UniProt Q9P0U3); assay: SENP1 catalytic domain blockers, concentration series – biochemical, kinetic FRET, dose response (AID 651697); format: functional; details: read-out: IC50_Mean
T6 sequence (Q9P0U3 whole entry): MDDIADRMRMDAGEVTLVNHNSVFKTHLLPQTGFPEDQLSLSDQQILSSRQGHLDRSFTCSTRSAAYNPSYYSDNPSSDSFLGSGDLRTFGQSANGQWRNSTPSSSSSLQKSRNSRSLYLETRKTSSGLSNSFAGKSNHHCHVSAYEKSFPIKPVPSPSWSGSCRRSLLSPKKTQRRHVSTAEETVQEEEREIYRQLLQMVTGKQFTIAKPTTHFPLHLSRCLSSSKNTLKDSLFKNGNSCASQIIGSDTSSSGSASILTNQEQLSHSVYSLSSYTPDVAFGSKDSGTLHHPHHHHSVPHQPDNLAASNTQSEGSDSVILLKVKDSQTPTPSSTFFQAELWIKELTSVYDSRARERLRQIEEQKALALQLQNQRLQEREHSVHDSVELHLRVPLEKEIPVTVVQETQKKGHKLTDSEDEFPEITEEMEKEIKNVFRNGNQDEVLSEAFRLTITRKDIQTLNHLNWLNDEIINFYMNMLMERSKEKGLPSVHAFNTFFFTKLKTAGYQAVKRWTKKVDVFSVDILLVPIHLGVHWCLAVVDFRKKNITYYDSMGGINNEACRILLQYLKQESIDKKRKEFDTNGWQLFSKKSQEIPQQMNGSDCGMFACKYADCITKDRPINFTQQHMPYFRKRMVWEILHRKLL

[17] = target: T6, Sentrin-specific protease 1; assay: Dose response confirmation of small molecule inhibitors of the catalytic domain of the SUMO protease, SENP1 in a FRET assay.; format: functional; details: read-out: IC50_Mean
Vero = assay: cells; format: functional; details: Chlorocebus sabaeus
[18] = target: T7, Aryl hydrocarbon receptor (Homo sapiens, UniProt P35869); details: Potency;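 note: confirmatory quantitative high-throughput screen measuring activation of the AhR signaling pathway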
T7 sequence (P35869 whole entry): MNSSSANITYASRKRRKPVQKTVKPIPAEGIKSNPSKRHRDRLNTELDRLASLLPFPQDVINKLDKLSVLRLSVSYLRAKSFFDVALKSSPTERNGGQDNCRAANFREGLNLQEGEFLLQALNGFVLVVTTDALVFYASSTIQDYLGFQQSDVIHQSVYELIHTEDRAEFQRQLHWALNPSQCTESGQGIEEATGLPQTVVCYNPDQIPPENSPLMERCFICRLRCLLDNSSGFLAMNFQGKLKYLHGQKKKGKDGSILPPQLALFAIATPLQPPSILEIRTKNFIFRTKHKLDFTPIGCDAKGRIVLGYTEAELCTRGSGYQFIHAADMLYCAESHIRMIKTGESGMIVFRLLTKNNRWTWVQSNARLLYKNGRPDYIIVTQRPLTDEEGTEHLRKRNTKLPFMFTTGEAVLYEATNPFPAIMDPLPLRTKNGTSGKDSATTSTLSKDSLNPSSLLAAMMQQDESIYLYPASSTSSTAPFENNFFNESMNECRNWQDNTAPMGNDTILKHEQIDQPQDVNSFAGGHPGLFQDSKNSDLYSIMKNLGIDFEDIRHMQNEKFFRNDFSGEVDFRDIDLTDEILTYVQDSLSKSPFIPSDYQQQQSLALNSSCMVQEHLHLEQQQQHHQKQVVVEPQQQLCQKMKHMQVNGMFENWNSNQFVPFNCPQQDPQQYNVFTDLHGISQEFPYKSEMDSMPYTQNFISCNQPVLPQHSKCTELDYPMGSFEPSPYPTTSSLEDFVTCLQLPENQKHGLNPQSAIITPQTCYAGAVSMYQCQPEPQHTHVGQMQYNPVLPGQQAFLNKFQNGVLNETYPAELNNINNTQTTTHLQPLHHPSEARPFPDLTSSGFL

Cytochrome P450 3A4 = Cytochrome P450 3A4 (Homo sapiens, UniProt P08684); details: Potency;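 note: confirmatory qHTS run detecting inhibitors and substrates of CYP3A4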
Cytochrome P450 3A4, sequence (P08684 whole entry): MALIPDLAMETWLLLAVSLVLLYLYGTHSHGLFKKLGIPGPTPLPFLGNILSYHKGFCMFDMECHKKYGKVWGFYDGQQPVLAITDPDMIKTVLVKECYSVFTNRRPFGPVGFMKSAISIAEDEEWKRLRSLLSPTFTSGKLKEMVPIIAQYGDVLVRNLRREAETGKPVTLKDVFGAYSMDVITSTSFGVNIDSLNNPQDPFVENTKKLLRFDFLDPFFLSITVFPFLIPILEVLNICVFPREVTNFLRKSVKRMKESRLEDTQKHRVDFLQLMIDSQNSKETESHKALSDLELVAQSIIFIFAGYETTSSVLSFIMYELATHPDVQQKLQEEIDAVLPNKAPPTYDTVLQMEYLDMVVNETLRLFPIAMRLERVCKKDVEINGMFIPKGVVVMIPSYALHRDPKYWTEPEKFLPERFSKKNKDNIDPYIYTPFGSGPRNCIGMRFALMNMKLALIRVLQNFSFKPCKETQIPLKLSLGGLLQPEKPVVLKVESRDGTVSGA

Adenosylmethionine-8-amino-7-oxononanoate aminotransferase, sequence (P9WQ81 whole entry): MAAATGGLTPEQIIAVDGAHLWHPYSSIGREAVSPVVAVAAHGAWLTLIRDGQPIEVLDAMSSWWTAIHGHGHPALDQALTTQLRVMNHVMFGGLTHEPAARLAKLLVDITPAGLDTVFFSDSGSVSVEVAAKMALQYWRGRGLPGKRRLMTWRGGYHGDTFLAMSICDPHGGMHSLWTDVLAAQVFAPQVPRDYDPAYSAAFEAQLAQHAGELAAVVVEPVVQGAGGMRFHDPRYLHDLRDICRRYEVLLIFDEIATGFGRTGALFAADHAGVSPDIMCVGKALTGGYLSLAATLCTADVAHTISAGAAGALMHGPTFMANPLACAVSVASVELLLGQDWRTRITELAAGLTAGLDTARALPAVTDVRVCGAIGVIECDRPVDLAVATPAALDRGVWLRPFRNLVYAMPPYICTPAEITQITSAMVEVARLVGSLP
MAP kinase-activated protein kinase 3, sequence (Q16644 whole entry): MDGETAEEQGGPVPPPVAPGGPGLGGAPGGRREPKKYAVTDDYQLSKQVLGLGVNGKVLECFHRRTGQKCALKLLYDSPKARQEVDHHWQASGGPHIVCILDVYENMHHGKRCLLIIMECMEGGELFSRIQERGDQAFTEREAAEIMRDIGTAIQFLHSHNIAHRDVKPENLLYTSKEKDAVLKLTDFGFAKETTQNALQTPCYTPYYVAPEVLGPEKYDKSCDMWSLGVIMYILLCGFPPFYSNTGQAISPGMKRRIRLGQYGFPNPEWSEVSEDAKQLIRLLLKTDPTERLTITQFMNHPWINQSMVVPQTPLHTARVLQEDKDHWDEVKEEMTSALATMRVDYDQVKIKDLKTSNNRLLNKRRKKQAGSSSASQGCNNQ
Cyclin-dependent kinase 1, sequence (P06493 whole entry): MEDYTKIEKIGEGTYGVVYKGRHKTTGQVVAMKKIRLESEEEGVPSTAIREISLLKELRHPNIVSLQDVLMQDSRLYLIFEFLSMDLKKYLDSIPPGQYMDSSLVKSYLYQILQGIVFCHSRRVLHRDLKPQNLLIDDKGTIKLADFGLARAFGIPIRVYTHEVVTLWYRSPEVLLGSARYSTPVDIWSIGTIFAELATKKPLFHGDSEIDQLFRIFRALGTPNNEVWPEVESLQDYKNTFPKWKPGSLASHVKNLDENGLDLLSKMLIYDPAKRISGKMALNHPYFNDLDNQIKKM
PAS domain-containing serine/threonine-protein kinase, sequence (Q96RG2 whole entry, the tested form may be a part): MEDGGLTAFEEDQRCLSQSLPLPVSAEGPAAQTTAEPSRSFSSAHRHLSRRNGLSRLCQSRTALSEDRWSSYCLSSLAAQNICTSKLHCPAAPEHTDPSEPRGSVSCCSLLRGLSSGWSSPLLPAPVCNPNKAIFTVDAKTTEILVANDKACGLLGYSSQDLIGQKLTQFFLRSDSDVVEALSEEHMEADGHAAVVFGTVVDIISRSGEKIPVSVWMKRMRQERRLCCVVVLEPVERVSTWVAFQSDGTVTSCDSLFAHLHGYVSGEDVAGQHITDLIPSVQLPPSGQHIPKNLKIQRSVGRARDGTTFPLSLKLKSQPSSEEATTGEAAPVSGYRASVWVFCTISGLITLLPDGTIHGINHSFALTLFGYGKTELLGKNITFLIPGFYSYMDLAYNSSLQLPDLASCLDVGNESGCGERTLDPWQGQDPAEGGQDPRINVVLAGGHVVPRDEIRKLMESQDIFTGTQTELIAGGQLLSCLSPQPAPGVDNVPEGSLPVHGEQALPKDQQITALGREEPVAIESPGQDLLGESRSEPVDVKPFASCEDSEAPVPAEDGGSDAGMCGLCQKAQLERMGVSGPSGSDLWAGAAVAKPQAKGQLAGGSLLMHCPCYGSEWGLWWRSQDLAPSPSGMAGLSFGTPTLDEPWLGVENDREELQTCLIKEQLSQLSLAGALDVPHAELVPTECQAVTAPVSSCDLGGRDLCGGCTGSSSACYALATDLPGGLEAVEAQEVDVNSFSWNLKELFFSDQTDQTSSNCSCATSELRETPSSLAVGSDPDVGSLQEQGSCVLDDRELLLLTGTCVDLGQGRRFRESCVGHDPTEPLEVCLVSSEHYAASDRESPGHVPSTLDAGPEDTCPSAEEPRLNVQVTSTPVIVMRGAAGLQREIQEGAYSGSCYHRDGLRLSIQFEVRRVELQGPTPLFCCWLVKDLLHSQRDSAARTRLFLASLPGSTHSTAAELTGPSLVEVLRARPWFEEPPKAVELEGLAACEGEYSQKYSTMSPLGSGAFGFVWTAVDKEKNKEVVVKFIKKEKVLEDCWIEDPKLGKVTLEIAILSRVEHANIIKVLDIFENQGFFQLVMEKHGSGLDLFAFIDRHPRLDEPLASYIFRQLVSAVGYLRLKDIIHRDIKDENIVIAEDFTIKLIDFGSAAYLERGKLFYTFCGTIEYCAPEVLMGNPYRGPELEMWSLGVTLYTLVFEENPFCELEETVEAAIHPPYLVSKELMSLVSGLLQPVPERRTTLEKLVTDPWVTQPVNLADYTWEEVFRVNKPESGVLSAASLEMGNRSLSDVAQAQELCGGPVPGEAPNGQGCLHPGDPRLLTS

**Q.** For CC(=O)c1ccc(N2CCN(c3ncccn3)CC2)c([N+](=O)[O-])c1, which EC50 (BJ [1]) is on record?
**A.** Its EC50 is > 150 µM (not active).

**Q.** What about the EC50 (BJ [2]) of the same compound?
**A.** The EC50 was > 150 µM (inconclusive).

**Q.** And the EC50 (BJ [3])?
**A.** Its EC50 is > 150 µM (not active).

**Q.** What about the EC50 [4] of the same compound?
**A.** The EC50 was > 150 µM (not active).

**Q.** And the AC50 [5]?
**A.** The AC50 was 1.02 µM (active).

**Q.** For CSc1nc2[nH]c3c(c2c2nnnn12)CCCC3, which IC50 [6] is on record?
**A.** The IC50 was 155 µM (inactive).

**Q.** Which AC50 [7] does the source give for CNC(=O)C[C@@H]1CC[C@H]2[C@@H](COc3ccc(NC(=O)c4cccc(OC)c4)cc3C(=O)N2C)O1 here?
**A.** The AC50 was 54.9 µM (active).

**Q.** Which AC50 [5] does the source give for COc1cc2cnc(-c3cccnc3)cc2cc1OC here?
**A.** The AC50 was 11.2 µM (active).

**Q.** For CN1CCN(c2ccc3nc(-c4c(N)c5c(F)cccc5[nH]c4=O)[nH]c3c2)CC1 [DOVITINIB], which Ki [8] is on record?
**A.** Its Ki is > 1.58 µM (inactive).

**Q.** What about the Ki [9] of the same compound?
**A.** Its Ki is > 10 µM (inactive).

**Q.** What about the Ki [10] of the same compound?
**A.** Its Ki is > 7.94 µM (inactive).

**Q.** And the Ki [11]?
**A.** Its Ki is > 10 µM (inactive).

**Q.** What about the Ki [12] of the same compound?
**A.** The Ki was > 7.94 µM (inactive).

**Q.** And the Ki [13]?
**A.** The Ki was > 6.31 µM (inactive).

**Q.** What about the Ki [14] of the same compound?
**A.** The Ki was > 7.94 µM (inactive).

**Q.** And the Ki [15]?
**A.** The Ki was > 1.58 µM (inactive).

**Q.** With O=c1c2ccccc2nc(/C=C/c2cc(Br)ccc2O)n1CCO as the compound, how does the IC50 [16] read?
**A.** The IC50 was 8.91 µM (active).

**Q.** What about the IC50 [17] of the same compound?
**A.** Its IC50 is 6.14 µM (active).

**Q.** And the CC50 (Vero)?
**A.** The CC50 was 15.2 µM (active).

**Q.** Which AC50 [18] does the source give for CC(C)(C)[C@@H](O)/C(=C\c1ccc(Cl)cc1Cl)n1cncn1 here?
**A.** The AC50 was 70.8 µM (inconclusive).

**Q.** For COc1ccc(C(=O)Nc2ccccc2)cc1[N+](=O)[O-], which AC50 [18] is on record?
**A.** Its AC50 is 44.7 µM (inconclusive).

**Q.** What about the AC50 (Cytochrome P450 3A4) of the same compound?
**A.** The AC50 was 15.8 µM (inconclusive).
